According to PubChem BioAssay (NCI):
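Assay format: 96-well plates, 48-hour exposure. Definition used: TGI = concentration required for complete inhibition of growth.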

How the values were obtained:
Experiment in all cases: NCI anticancer screen, dose series, 48 h
SK-MEL-5 melanoma = test system: SK-MEL-5 melanoma
SK-OV-3 ovarian = test system: SK-OV-3 ovarian
HCC-2998 colon = test system: HCC-2998 colon
EKVX NSCLC = test system: EKVX NSCLC
U251 CNS = test system: U251 CNS
LOX IMVI melanoma = test system: LOX IMVI melanoma
T-47D breast = test system: T-47D breast
DU-145 prostate = test system: DU-145 prostate
HL-60(TB) leukemia = test system: HL-60(TB) leukemia
SF-539 CNS = test system: SF-539 CNS
MDA-N = test system: MDA-N
RXF 393 renal = test system: RXF 393 renal
OVCAR-4 ovarian = test system: OVCAR-4 ovarian
CCRF-CEM leukemia = test system: CCRF-CEM leukemia
ACHN renal = test system: ACHN renal
M14 melanoma = test system: M14 melanoma

| Compound | TGI (SK-MEL-5 melanoma) [µM] | TGI (SK-OV-3 ovarian) [µM] | TGI (HCC-2998 colon) [µM] | TGI (EKVX NSCLC) [µM] | TGI (U251 CNS) [µM] | TGI (LOX IMVI melanoma) [µM] | TGI (T-47D breast) [µM] | TGI (DU-145 prostate) [µM] | TGI (HL-60(TB) leukemia) [µM] | TGI (SF-539 CNS) [µM] | TGI (MDA-N) [µM] | TGI (RXF 393 renal) [µM] | TGI (OVCAR-4 ovarian) [µM] | TGI (CCRF-CEM leukemia) [µM] | TGI (ACHN renal) [µM] | TGI (M14 melanoma) [µM] |
| --- | --- | --- | --- | --- | --- | --- | --- | --- | --- | --- | --- | --- | --- | --- | --- | --- |
| CCOC(=O)Cc1nc2nn(Cc3ccccc3)cc2c(=O)[nH]1 | > 100 | > 100 | > 100 | > 100 | > 100 | > 100 | > 100 | > 100 | > 100 | > 100 | > 100 | > 100 | > 100 | > 100 | > 100 | – |
| CCOP(=O)(CCC(O)CNc1nc(N)nc(Cl)c1N=Nc1ccc(Cl)cc1)OCC (configuration not stated) | 25.7 | 58.9 | 26.1 | 40.6 | 51.2 | 22.9 | 37.3 | > 100 | 33.3 | – | 28.3 | 21.1 | 24.3 | 46.5 | 31.6 | – |
| Cc1ccc(-c2cnc(NC3OC(COC(=O)c4ccccc4)C(OC(=O)c4ccccc4)C(OC(=O)c4ccccc4)C3OC(=O)c3ccccc3)s2)cc1 (configuration not stated) | > 100 | > 100 | – | > 100 | > 100 | > 100 | > 100 | > 100 | – | – | > 100 | > 100 | > 100 | – | > 100 | > 100 |
| CC(C)[Si](OCC/C=C/C1CCC(=O)C1C(O)C1CCCCC1)(C(C)C)C(C)C (configuration not stated) | 29 | 30.3 | 23.2 | 28.9 | 30.9 | 32.7 | 33.7 | 32 | – | 40.6 | 36.4 | 26.4 | 38.6 | 44.6 | 27.9 | 37.8 |
| COC(=O)c1cccc(C)c1C1CN=NC12Cc1c(ccc(C)c1C)C2=O (configuration not stated) | 17.7 | – | > 100 | 57.9 | > 100 | > 100 | 25.1 | > 100 | 37.1 | > 100 | > 100 | 92.4 | > 100 | > 100 | > 100 | > 100 |
| CCOC(=O)C(NC(=O)NCc1ccc(F)cc1)C(F)(F)F (configuration not stated) | > 100 | > 100 | > 100 | > 100 | > 100 | > 100 | > 100 | – | > 100 | > 100 | > 100 | > 100 | – | > 100 | > 100 | > 100 |
| CC(=O)/C(=C/N1C(=O)CC(=O)NC1=S)C(=O)Nc1ccccc1C | > 100 | > 100 | 84.7 | > 100 | > 100 | > 100 | > 100 | > 100 | > 100 | > 100 | > 100 | > 100 | > 100 | – | > 100 | > 100 |
| CCCOc1ccc(/C=C/C2=[N+](CCO)CCO2)cc1 | > 100 | > 100 | > 100 | > 100 | > 100 | – | > 100 | > 100 | > 100 | > 100 | > 100 | > 100 | > 100 | > 100 | > 100 | > 100 |
| C#CCOC(=O)C(N)CS (configuration not stated) | > 100 | > 100 | – | > 100 | > 100 | > 100 | > 100 | > 100 | > 100 | – | > 100 | > 100 | – | > 100 | > 100 | > 100 |
| COc1ccc(OC)c2c(=O)cc(-c3ccccc3)[nH]c12 | – | > 100 | > 100 | > 100 | > 100 | > 100 | > 100 | > 100 | > 100 | – | > 100 | > 100 | > 100 | > 100 | > 100 | > 100 |
| C=C(CO)[C@H]1CC/C(C)=C/CC/C(C)=C/C/C=C(\C)[C@H](O)C1 | 54.1 | > 100 | 32.2 | > 100 | 36 | 73.8 | > 100 | > 100 | – | 40.8 | > 100 | 42.1 | > 100 | > 100 | 69.7 | – |
| C=CCNC(NCC=C)=C(C(Cl)=C(Cl)Cl)[N+](=O)[O-] | – | > 100 | > 100 | > 100 | > 100 | – | > 100 | > 100 | – | 71.7 | > 100 | – | > 100 | > 100 | > 100 | > 100 |
| CC(C(O)c1ccccc1)N(C)/N=N/c1nc2c([nH]1)c(=O)n(C)c(=O)n2C (configuration not stated) | > 100 | > 100 | > 100 | > 100 | > 100 | – | > 100 | > 100 | > 100 | – | > 100 | > 100 | > 100 | > 100 | > 100 | > 100 |
| c1ccc2c(c1)n1c(N3CCOCC3)[n+]3ccccc3c1c1c3cccc[n+]3c(N3CCOCC3)n21 | > 100 | – | > 100 | > 100 | > 100 | > 100 | > 100 | > 100 | > 100 | > 100 | > 100 | > 100 | > 100 | > 100 | > 100 | > 100 |
